Data reported in patent US8703805B2 (Exelixis Patent Company LLC, priority 2005, dated 2014).
pEC50: −log10 of the molar value.

What follows are compounds tested on LXRα and/or LXRβ (assay: LXR/LXRE co-transfection assay (luciferase reporter, CV-1 cells)). Conditions: IC50 or EC50 for LXR (LXRα and/or LXRβ, not distinguished), tested as described in Example 109, CV-1 cells.
Type: cell-based, human
How it was run: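 Transient co-transfection of CV-1 cells with full-length human LXRα or LXRβ plus RXRα expression plasmids and an LXREx1-Tk-luciferase reporter; compounds (10 μM screen, ≤1% DMSO) incubated 20 h at 37 °C. Luminescence read after lysis; EC50/IC50 from 8-point half-log curves, efficacy relative to a high control or DMSO.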

SMILES	pEC50
CN1CCC(N(C)C(=O)c2cc(-c3ccc(-c4cccc(S(C)(=O)=O)c4)s3)n(-c3ccccc3Cl)n2)CC1 [Example 716, 1-(2-chlorophenyl)-N-methyl-N-(1-methylpiperidin-4-yl)-5-{5-[3-(methylsulfonyl)phenyl]-2-thienyl}-1H-pyrazole-3-carboxamide]	> 6.00
COC(=O)CN(C)C(=O)c1cc(-c2ccc(-c3cccc(S(C)(=O)=O)c3)s2)n(-c2ccccc2Cl)n1 [Example 589, methyl N-{[1-(2-chlorophenyl)-5-{5-[3-(methylsulfonyl)phenyl]-2-thienyl}-1H-pyrazol-3-yl]carbonyl}-N-methylglycinate]	> 6.00
CC(C)NC(=O)c1cccc(-c2ccc(-c3cc(C(C)(C)O)nn3-c3ccccc3Cl)cc2)c1 [Example 1292, 4′-[1-(2-chlorophenyl)-3-(1-hydroxy-1-methylethyl)-1H-pyrazol-5-yl]-N-(1-methylethyl)biphenyl-3-carboxamide]	5.00 to 6.00
CC(C)(O)c1cc(-c2ccc(-c3cccc(S(C)(=O)=O)c3)cc2Cl)n(-c2c(Cl)cccc2Cl)n1 [Example 142, 2-(5-(3-chloro-3′-(methylsulfonyl)biphenyl-4-yl)-1-(2,6-dichlorophenyl)-1H-pyrazol-3-yl)propan-2-ol]	> 6.00
CN(Cc1ccncc1)Cc1cc(-c2ccc(-c3cccc(S(C)(=O)=O)c3)s2)n(-c2ccccc2Cl)n1 [Example 547, 1-[1-(2-chlorophenyl)-5-{5-[3-(methylsulfonyl)phenyl]-2-thienyl}-1H-pyrazol-3-yl]-N-methyl-N-(pyridin-4-ylmethyl)methanamine]	> 6.00
CC(C)(O)c1cc(-c2ccc(-c3cccc(NS(C)(=O)=O)c3)cc2)n(-c2ccccc2Cl)n1 [Example 1309, N-{4′-[1-(2-chlorophenyl)-3-(1-hydroxy-1-methylethyl)-1H-pyrazol-5-yl]biphenyl-3-yl}methanesulfonamide]	5.00 to 6.00
CCN(CC)C(=O)COc1cccc(-c2ccc(-c3cc(C(C)(C)O)nn3-c3ccccc3Cl)cc2)c1 [Example 1298, 2-({4′-[1-(2-chlorophenyl)-3-(1-hydroxy-1-methylethyl)-1H-pyrazol-5-yl]biphenyl-3-yl}oxy)-N,N-diethylacetamide]	5.00 to 6.00
COC(=O)CNC(=O)c1ccc(-c2cc(C(F)(F)F)nn2-c2ccccc2Cl)cc1 [Example 1354, methyl N-({4-[1-(2-chlorophenyl)-3-(trifluoromethyl)-1H-pyrazol-5-yl]phenyl}carbonyl)glycinate]	5.00 to 6.00
CS(=O)(=O)c1cccc(-c2ccc(-c3cc(C(=O)NCCc4ccccn4)nn3-c3ccccc3Cl)s2)c1 [Example 1232, 1-(2-chlorophenyl)-5-{5-[3-(methylsulfonyl)phenyl]-2-thienyl}-N-(2-pyridin-2-ylethyl)-1H-pyrazole-3-carboxamide]	5.00 to 6.00
O=C(c1ccc(-c2cc(C(F)(F)F)nn2-c2ccccc2Cl)cc1)N1CCCC1CO (centres unmarked) [Example 1000, [1-({4-[1-(2-chlorophenyl)-3-(trifluoromethyl)-1H-pyrazol-5-yl]phenyl}carbonyl)pyrrolidin-2-yl]methanol]	5.00 to 6.00
CC(=O)Nc1cccc(-c2ccc(-c3cc(C(C)(C)O)nn3-c3ccccc3Cl)cc2)c1 [Example 1311, N-{4′-[1-(2-chlorophenyl)-3-(1-hydroxy-1-methylethyl)-1H-pyrazol-5-yl]biphenyl-3-yl}acetamide]	5.00 to 6.00
CN(C)CCCN(C)C(=O)c1cc(-c2ccc(-c3cccc(S(C)(=O)=O)c3)s2)n(-c2ccccc2Cl)n1 [Example 588, 1-(2-chlorophenyl)-N-[3-(dimethylamino)propyl]-N-methyl-5-{5-[3-(methylsulfonyl)phenyl]-2-thienyl}-1H-pyrazole-3-carboxamide]	> 6.00
CC(=O)c1cc(-c2ccccc2Cl)n(-c2ccc(-c3cccc(S(C)(=O)=O)c3)cn2)n1 [Example 1248, 1-[5-(2-chlorophenyl)-1-(5-[3-(methylsulfonyl)phenyl]pyridin-2-yl}-1H-pyrazol-3-yl]ethanone]	5.00 to 6.00
CC(C)CNC(=O)c1cc(-c2ccc(-c3cccc(S(C)(=O)=O)c3)cc2Cl)n(-c2c(Cl)cccc2Cl)n1 [Example 1389, 5-(3-chloro-3′-(methylsulfonyl)biphenyl-4-yl)-1-(2,6-dichlorophenyl)-N-isobutyl-1H-pyrazole-3-carboxamide]	> 6.00
C/C(=N\OCCN(C)C)c1cc(-c2ccc(-c3cccc(S(C)(=O)=O)c3)s2)n(-c2ccccc2Cl)n1 [Example 1337, (1E)-1-[1-(2-chlorophenyl)-5-{5-[3-(methylsulfonyl)phenyl]-2-thienyl}-1H-pyrazol-3-yl]ethanone O-[2-(dimethylamino)ethyl]oxime]	> 6.00

More lines, now with the values ahead:

pEC50	SMILES
5.00 to 6.00	CC(C)(O)c1cc(-c2ccc(-c3cccc(S(C)(=O)=O)c3)cc2)n(-c2cnccc2C(F)(F)F)n1 [Example 108, 2-(5-(3′-(methylsulfonyl)biphenyl-4-yl)-1-(4-(trifluoromethyl)pyridin-3-yl)-1H-pyrazol-3-yl)propan-2-ol]
> 6.00	CC(C)(O)c1cc(-c2ccc(-c3cccc(S(C)(=O)=O)c3)cc2)n(-c2ncccc2C(F)(F)F)n1 [Example 1202, 2-{5-[3′-(methylsulfonyl)phenyl-4-yl]-1-[3-(trifluoromethyl)pyridin-2-yl]-1H-pyrazol-3-yl}propan-2-ol]
> 6.00	CC(=O)c1cc(-c2ccc(-c3cccc(S(C)(=O)=O)c3)s2)n(-c2ccccc2Cl)n1 [Example 1150, 1-[1-(2-chlorophenyl)-5-{5-[3-(methylsulfonyl)phenyl]-2-thienyl}-1H-pyrazol-3-yl]ethanone]
> 6.00	Cc1cc(-c2cccc(S(C)(=O)=O)c2)ccc1-n1nc(C(C)(C)O)cc1-c1ccccc1Cl [Example 113, 2-(5-(2-chlorophenyl)-1-(3-methyl-3′-(methylsulfonyl)biphenyl-4-)-1H-pyrazol-3-yl)propan-2-ol]
> 6.00	CC(C)(O)c1nn(-c2ccccc2Br)c(-c2ccc(-c3cccc(S(C)(=O)=O)c3)s2)c1Cl [Example 1368, 2-[1-(2-bromophenyl)-4-chloro-5-{5-[3-(methylsulfonyl)phenyl]-2-thienyl}-1H-pyrazol-3-yl]propan-2-ol]
5.00 to 6.00	CC(C)(O)c1cc(-c2ccc(-c3cccc(S(C)(=O)=O)c3)s2)n(-c2ccccn2)n1 [Example 1264, 2-(5-{5-[3-(methylsulfonyl)phenyl]-2-thienyl}-1-pyridin-2-yl-1H-pyrazol-3-yl)propan-2-ol]
5.00 to 6.00	CC(C)S(=O)(=O)c1cccc(-c2ccc(-c3cc(C(C)(C)O)nn3-c3ncccc3C(F)(F)F)s2)c1 [Example 1184, 2-{5-(5-{3-[(1-methylethyl)sulfonyl]phenyl}-2-thienyl)-1-[3-(trifluoromethyl)pyridin-2-yl]-1H-pyrazol-3-yl}propan-2-ol]
> 6.00	CS(=O)(=O)c1cccc(-c2ccc(-c3cc(C(=O)NCC(F)(F)F)nn3-c3ccccc3C(F)(F)F)s2)c1 [Example 1195, 5-{5-[3-(methylsulfonyl)phenyl]-2-thienyl}-N-(2,2,2-trifluoroethyl)-1-[2-(trifluoromethyl)phenyl]-1H-pyrazole-3-carboxamide]
5.00 to 6.00	CON(C)C(=O)c1cc(-c2ccc(-c3cccc(S(C)(=O)=O)c3)s2)n(-c2ncccc2C(F)(F)F)n1 [Example 1237, N-methyl-N-(methyloxy)-5-{5-[3-(methylsulfonyl)phenyl]-2-thienyl}-1-[3-(trifluoromethyl)pyridin-2-yl]-1H-pyrazole-3-carboxamide]
> 6.00	Cc1cc(-c2cccc(S(C)(=O)=O)c2)ccc1-n1nc(C(C)(C)O)cc1-c1cccc(F)c1F [Example 116, 2-(5-(2,3-difluorophenyl)-1-(3-methyl-3′-(methylsulfonyl)biphenyl-4-yl)-1H-pyrazol-3-yl)propan-2-ol]
> 6.00	Cc1c(F)cccc1-n1nc(C(C)(C)O)cc1-c1ccc(-c2cccc(S(C)(=O)=O)c2)s1 [Example 1361, 2-[1-(3-fluoro-2-methylphenyl)-5-{5-[3-(methylsulfonyl)phenyl]-2-thienyl}-1H-pyrazol-3-yl]propan-2-ol]
> 6.00	Cc1ccc(F)cc1-n1nc(C(C)(C)O)cc1-c1ccc(-c2cccc(S(C)(=O)=O)c2)s1 [Example 1331, 2-[1-(5-fluoro-2-methylphenyl)-5-{5-[3-(methylsulfonyl)phenyl]-2-thienyl}-1H-pyrazol-3-yl]propan-2-ol]
> 6.00	CC(C)(O)c1nn(-c2cccc(Cl)c2F)c(-c2ccc(-c3cccc(S(C)(=O)=O)c3)s2)c1Cl [Example 1366, 2-[4-chloro-1-(3-chloro-2-fluorophenyl)-5-{5-[3-(methylsulfonyl)phenyl]-2-thienyl}-1H-pyrazol-3-yl]propan-2-ol]
> 6.00	CCNC(=S)c1cc(-c2ccc(-c3cccc(S(C)(=O)=O)c3)s2)n(-c2ccccc2Cl)n1 [Example 1194, 1-(2-chlorophenyl)-N-ethyl-5-{5-[3-(methylsulfonyl)phenyl]-2-thienyl}-1H-pyrazole-3-carbothioamide]
> 6.00	Cc1cc(-c2cccc(S(C)(=O)=O)c2)ccc1-c1cc(C(C)(C)O)nn1-c1cccnc1C(F)(F)F [Example 1390, 2-(5-(3-methyl-3′-(methylsulfonyl)biphenyl-4-yl)-1-(2-(trifluoromethyl)pyridin-3-yl)-1H-pyrazol-3-yl)propan-2-ol]
> 6.00	CC(C)c1ccccc1-n1nc(C(C)(C)O)cc1-c1ccc(-c2cccc(S(C)(=O)=O)c2)s1 [Example 1345, 2-(1-[2-(1-methylethyl)phenyl]-5-{5-[3-(methylsulfonyl)phenyl]-2-thienyl}-1H-pyrazol-3-yl)propan-2-ol]
5.00 to 6.00	CC(C)(O)c1cc(-c2ccc(-c3ccc(F)c(C(F)(F)F)c3)cc2)n(-c2ccccc2Cl)n1 [Example 1299, 2-{1-(2-chlorophenyl)-5-[4′-fluoro-3′-(trifluoromethyl)biphenyl-4-yl]-1H-pyrazol-3-yl}propan-2-ol]
